Measured values as given in BindingDB's records for patent US20240190862 (Amgen, 2024).

Tests used:
[1] = target: T1, GTPase KRas [1-169,G12C,C118A] (Homo sapiens, UniProt P01116, C118A/G12C); assay: Coupled Nucleotide Exchange Assay (20 hours)
T1 construct: 1-169
Method: (§1) Purified GDP-bound KRAS protein (aa 1-169), containing either G12C or G12D, as well as C118A amino acid substitutions and an N-terminal His-tag, was pre-incubated in assay buffer (25 mM HEPES pH 7.4, 10 mM MgCl2, and 0.01% Triton X-100) with a compound dose-response titration for 20 hours. Following compound pre-incubation, purified SOS protein (aa 564-1049) and GTP (Roche 10106399001) were added to the assay wells and incubated for an additional 30 min. To determine the extent of inhibition of SOS-mediated nucleotide exchange, purified GST-tagged cRAF (aa 1-149), nickel chelate AlphaLISA acceptor beads (PerkinElmer AL108R), and AlphaScreen glutathione donor beads (PerkinElmer 6765302) were added to the assay wells and incubated for 10 minutes. The assay plates were then read on a PerkinElmer EnVision Multilabel Reader, using AlphaScreen technology, and data were analyzed using a 4-parameter logistic model to calculate IC50 values.

[2] = target: GTPase KRas [G12D,C118A] (Homo sapiens, UniProt P01116, C118A/G12D); assay: Coupled Nucleotide Exchange Assay (20 hours)
Sequence of GTPase KRas [G12D,C118A] (P01116 whole entry G12D/C118A, looked up): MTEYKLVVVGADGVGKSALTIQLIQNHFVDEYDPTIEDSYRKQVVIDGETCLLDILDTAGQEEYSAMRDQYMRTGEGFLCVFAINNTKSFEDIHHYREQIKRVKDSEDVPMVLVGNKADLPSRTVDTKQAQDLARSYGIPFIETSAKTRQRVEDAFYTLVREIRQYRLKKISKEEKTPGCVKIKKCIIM
Method: as §1

[3] = target: T1, GTPase KRas [1-169,G12C,C118A]; assay: Coupled Nucleotide Exchange Assay (5min)
Method: as §1, with “either 5 min.” for “20 hours.”

T1 sequence (P01116 1-169 G12C/C118A): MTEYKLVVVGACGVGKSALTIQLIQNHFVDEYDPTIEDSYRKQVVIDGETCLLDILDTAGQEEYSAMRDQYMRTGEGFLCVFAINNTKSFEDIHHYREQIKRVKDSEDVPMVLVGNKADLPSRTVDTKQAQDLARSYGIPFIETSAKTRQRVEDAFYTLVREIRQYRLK

SMILES | IC50 [1] [µM] | IC50 [2] [µM] | IC50 [3] [µM]
Cc1ccnc(C(C)C)c1-n1c(=O)nc(N2CCN(C(=O)C=[N+]=[N-])C[C@@H]2C)c2cc(Cl)c(-c3ccccc3F)nc21 [US20240190862, Example 13] | 0.54 | > 250 | 8.59
CC(=O)C(=O)N1CCN(c2nc(=O)n(-c3c(C)ccnc3C(C)C)c3nc(-c4ccccc4F)c(Cl)cc23)[C@@H](C)C1 [US20240190862, Example 3] | 31.3 | > 250 | 
Cc1ccnc(C(C)C)c1-n1c(=O)nc(N2CCN(C(=O)COc3c(F)cccc3F)C[C@@H]2C)c2cc(Cl)c(-c3ccccc3F)nc21 [US20240190862, Example 8] | 24 | > 250 | 
Cc1ccnc(C(C)C)c1-n1c(=O)nc(N2CCN(C(=O)C=O)C[C@@H]2C)c2cc(Cl)c(-c3ccccc3F)nc21 [US20240190862, Example 4] | 0.039 | > 250 | 0.61
